Laboratory results from patent US20250129028A1, “COMPOUNDS AND METHODS FOR YAP/TEAD MODULATION AND INDICATIONS THEREFOR” (Opna Bio SA, priority 2022, published 2025).

Tested on: TEAD-dependent transcription
Assay: TEAD-dependent transcription cell-based reporter assay (MSTO-211H+12XGTIIC luciferase)
Design: species or system human
Settings: Homo sapiens; MSTO-211H+12XGTIIC cell line, luciferase signal normalized to cell viability, 24 hours compound incubation; read-out: MSTO-211H GMean IC50 (uM) Cell Assay Reporter Cell Variant: TEAD
Procedure, shortened: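 MSTO-211H mesothelioma cells stably carrying a 12xGTIIC TEAD-response-element luciferase reporter, treated with serial compound dilutions for 24 h at 37 °C. Luminescence normalized to CellTiter-Fluor viability signal; % inhibition versus DMSO and 20 μM K-975 controls, IC50 by nonlinear regression.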

Compound	IC50 [µM]
NC(=O)NCC(=O)N1CCc2c(cccc2Oc2ccc(C(F)(F)F)cc2)C1 [P-0270, 1-(2-oxo-2-(5-(4-(trifluoromethyl)phen-oxy)-3,4-dihydroisoquin-olin-2(1H)-yl)ethyl)urea]	0.001 to 10
CS(=O)(=O)CCC(=O)N1CCc2c(cccc2-c2ccc(C(F)(F)F)cc2)C1 [P-0271, 3-(methylsulfonyl)-1-(5-(4-(trifluoromethyl)phen-yl)-3,4-dihydroisoquin-olin-2(1H)-yl)propan-1-one]	0.001 to 10
NC(=O)NCC(=O)N1CCc2c(cccc2-c2ccc(C(F)(F)F)cc2)C1 [P-0272, 1-(2-oxo-2-(5-(4-(trifluoromethyl)phen-yl)-3,4-dihydroisoquin-olin-2(1H)-yl)ethyl)urea]	0.001 to 10
N#CCCC(=O)N1CCc2c(cccc2-c2ccc(C(F)(F)F)cc2)C1 [P-0273, 4-oxo-4-(5-(4-(trifluoromethyl)phenyl)-3,4-dihydroisoquinolin-2(1H)-yl)butanenitrile]	0.001 to 10
Nc1nc(C(=O)N2CCc3c(cccc3-c3ccc(C(F)(F)F)cc3)C2)cs1 [P-0274]	0.001 to 10
O=C(Cc1cnc[nH]1)N1CCc2c(cccc2-c2ccc(C(F)(F)F)cc2)C1 [P-0275, 2-(1H-imidazol-5-yl)-1-(5-(4-(trifluoromethyl)-phenyl)-3,4-dihydroiso-quinolin-2(1H)-yl)ethan-1-one]	0.001 to 10
CS(=O)(=O)CCNC(=O)N1CCc2c(cccc2-c2ccc(C(F)(F)F)cc2)C1 [P-0276, N-(2-(methylsulfonyl)-ethyl)-5-(4-(trifluoro-methyl)phenyl)-3,4-dihydroisoquinoline-2(1H)-carboxamide]	0.001 to 10
CS(=O)(=O)CCC(=O)N1CCc2ccc(-c3ccc(OC(F)(F)F)cc3)cc2C1 [P-0277, 3-(methylsulfonyl)-1-(7-(4-(trifluoromethoxy)phenyl)-3,4-dihydroisoquinolin-2(1H)-yl)propan-1-one]	10 to 100
